Here are results for 12 compounds from US12145947B2, “Pyrimidine based modulators and uses thereof” (Quanta Therapeutics, Inc., priority 2022, dated 2024).

One assay deals with T1, KRAS G12D/RAF1 (Homo sapiens, UniProt P01116, G12D).
T1 construct: His6-MBP (N, cleaved yes); made in house; host or cells: E. coli
The assay is described as follows: Protein-protein interaction (PPI) HTRF assay KRAS G12D/RAF1. The format is binding. Put shortly: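 Biotinylated human KRAS (1-169; wt, G12D, G12V) or wt NRAS, GppNHp-loaded, pre-incubated 30 min RT with compound and streptavidin-d2, then His-RAF1 RBD (52-131) with anti-6His Tb cryptate added for 1 h RT. HTRF 665/615 ratio normalized to no compound (0%) and untagged RAF1 (100%); IC50.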
(In TR-FRET formats the signal depends on donor and acceptor labels being close together.)

Assay [1] has as its system AGS cells (KRAS G12D), phospho-ERK. The assay is described as follows: pERK In Cell Western (ICW) assay (Method B), AGS cells. The assay is classed as cell-based. The conditions noted are these: Table 4, pERK, 3 hours, read-out: ICW-AGS. Put shortly:
(§1)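 GP2D (10,000 cells/well) and AGS (5,000 cells/well) cells were treated for 3 h at 37 °C with a 10-point, ½-log dilution series (top […]). They were then fixed and immunostained for phospho-ERK. pERK signal was normalised to DRAQ5 and expressed as % of DMSO, with IC50 from a 4-parameter fit.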

Assay [2] concerns GP2D cells (KRAS G12D), phospho-ERK. The experiment in a line: pERK In Cell Western (ICW) assay, GP2D cells. The format is cell-based. The conditions noted are these: Table 4, 3 hours. Put shortly:
as §1

Read-outs that look alike come from different tables or passages of the source.

T1 sequence (P01116 with tags, fused parts or gaps isoform P01116-2 G12D): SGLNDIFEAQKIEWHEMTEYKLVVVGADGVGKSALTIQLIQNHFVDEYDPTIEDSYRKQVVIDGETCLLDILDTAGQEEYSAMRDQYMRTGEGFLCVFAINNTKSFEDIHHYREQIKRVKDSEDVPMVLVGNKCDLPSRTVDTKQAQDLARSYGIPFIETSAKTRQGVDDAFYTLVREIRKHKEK

Take `N#Cc1c(N2C[C@H]3CC[C@@H](C2)N3)nc(OCC2(CN3CCC(F)(F)CC3)CC2)nc1N1CC2(CCc3sc(N)c(C#N)c32)C1` [Compound 34, 2-amino-1′-[5-cyano-6-(3,8-diazabicyclo[3.2.1]octan-3-yl)-2-[[1-[(4,4-difluoro-1-piperidyl)methyl]cyclopropyl]methoxy]pyrimidin-4-yl]spiro[5,6-dihydrocyclopenta[b]thiophene-4,3′-azetidine]-3-carbonitrile]: the IC50 was in the range of 100 to 1000 nM at KRAS G12D/RAF1 (Table 4), 10 to 100 nM in assay [1] (Homo sapiens) and 1 to 10 nM in assay [2].

Regarding `N#Cc1c(N2C[C@H]3CC[C@@H](C2)N3)nc(OCC2(CN3CCOCC3)CC2)nc1N1CC2(CCCc3sc(N)c(C#N)c32)C1` [Compound 41, 2-amino-1′-[5-cyano-2-[[1-(morpholinomethyl)cyclopropyl]methoxy]-6-[(1R,5S)-3,8-diazabicyclo[3.2.1]octan-3-yl]pyrimidin-4-yl]spiro[6,7-dihydro-5H-benzothiophene-4,3′-azetidine]-3-carbonitrile], the IC50 on KRAS G12D/RAF1 (Table 4) lay in the range of 100 to 1000 nM; in assay [1] (Homo sapiens) it was 10 to 100 nM; in assay [2] it was 1 to 10 nM.

With `N#Cc1c(N2C[C@H]3COC[C@@H](C2)N3)nc(OCC2(CN3CCOCC3)CC2)nc1N1CC2(CCc3sc(N)c(C#N)c32)C1` [Compound 42, 2-amino-1′-[5-cyano-2-[[1-(morpholinomethyl)cyclopropyl]methoxy]-6-(3-oxa-7,9-diazabicyclo[3.3.1]nonan-7-yl)pyrimidin-4-yl]spiro[5,6-dihydrocyclopenta[b]thiophene-4,3′-azetidine]-3-carbonitrile], the IC50 on KRAS G12D/RAF1 (Table 4) was 1000 to 10000 nM; in assay [1] (Homo sapiens), 100 to 1000 nM; in assay [2], 100 to 1000 nM.

Consider `CC1CC2(CN(c3nc(OCC4(CN5CCOCC5)CC4)nc(N4C[C@H]5CC[C@@H](C4)N5)c3C#N)C2)c2c1sc(N)c2C#N` (stereo partly drawn) [Compound 45, 2-amino-1-[5-cyano-2-[[1-(morpholinomethyl)cyclopropyl]methoxy]-6-[(1R,5S)-3,8-diazabicyclo[3.2.1]octan-3-yl]pyrimidin-4-yl]-6-methyl-spiro[5,6-dihydrocyclopenta[b]thiophene-4,3′-azetidine]-3-carbonitrile], for which the figures for the IC50 (against KRAS G12D/RAF1 (Table 4); in assay [1] (Homo sapiens); in assay [2]) were 100 to 1000 nM, 10 to 100 nM and 1 to 10 nM, respectively.

In the case of `Cc1nc(-c2nn3c(c2Cl)CN(c2nc(OC[C@@]45CCCN4C[C@H](F)C5)nc(N4CC5(CCc6sc(N)c(C#N)c65)C4)c2C#N)CCC3)no1` [Compound 46, 2-amino-1′-[6-[3-chloro-2-(5-methyl-1,2,4-oxadiazol-3-yl)-4,6,7,8-tetrahydropyrazolo[1,5-a][1,4]diazepin-5-yl]-5-cyano-2-[[(2R,8S)-2-fluoro-1,2,3,5,6,7-hexahydropyrrolizin-8-yl]methoxy]pyrimidin-4-yl]spiro[5,6-dihydrocyclopenta[b]thiophene-4,3′-azetidine]-3-carbonitrile], the IC50 against KRAS G12D/RAF1 (Table 4) was 1000 to 10000 nM; in assay [1] (Homo sapiens), 100 to 1000 nM; in assay [2], 10 to 100 nM.

Turning to `CN(C)C1(COc2nc(N3C[C@H]4CC[C@@H](C3)N4)c(C#N)c(N3CC4(CCc5sc(N)c(C#N)c54)C3)n2)CC1` [Compound 47, 2-amino-1′-[5-cyano-6-[(1R,5S)-3,8-diazabicyclo[3.2.1]octan-3-yl]-2-[[1-(dimethylamino)cyclopropyl]methoxy]pyrimidin-4-yl]spiro[5,6-dihydrocyclopenta[b]thiophene-4,3′-azetidine]-3-carbonitrile], the values for the IC50 (against KRAS G12D/RAF1 (Table 4); in assay [1] (Homo sapiens); in assay [2]) were 10000 to 100000 nM, 100 to 1000 nM and 10 to 100 nM, respectively.

Consider `CN(CCOc1nc(N2C[C@H]3CC[C@@H](C2)N3)c(C#N)c(N2CC3(CCc4sc(N)c(C#N)c43)C2)n1)C1CCC1` [Compound 48, 2-amino-1′-[5-cyano-2-[2-[cyclobutyl(methyl)amino]ethoxy]-6-[(1R,5S)-3,8-diazabicyclo[3.2.1]octan-3-yl]pyrimidin-4-yl]spiro[5,6-dihydrocyclopenta[b]thiophene-4,3′-azetidine]-3-carbonitrile], for which the IC50 was 10000 to 100000 nM against KRAS G12D/RAF1 (Table 4), 1000 to 10000 nM in assay [1] (Homo sapiens) and 100 to 1000 nM in assay [2].

With `CN(C)CC1(COc2nc(N3C[C@H]4CC[C@@H](C3)N4)c(C#N)c(N3CC4(CCc5sc(N)c(C#N)c54)C3)n2)COC1` [Compound 52, 2-amino-1′-[5-cyano-6-[(1R,5S)-3,8-diazabicyclo[3.2.1]octan-3-yl]-2-[[3-[(dimethylamino)methyl]oxetan-3-yl]methoxy]pyrimidin-4-yl]spiro[5,6-dihydrocyclopenta[b]thiophene-4,3′-azetidine]-3-carbonitrile], the IC50 lay in the range of 100 to 1000 nM at KRAS G12D/RAF1 (Table 4), 100 to 1000 nM in assay [1] (Homo sapiens) and 1 to 10 nM in assay [2].

Regarding `N#Cc1c(N2CCCn3nc(C(=O)C4CC4)c(Cl)c3C2)nc(OC[C@@]23CCCN2C[C@H](F)C3)nc1N1CC2(CCc3sc(N)c(C#N)c32)C1` [Compound 62, 2-amino-1′-[6-[3-chloro-2-(cyclopropanecarbonyl)-4,6,7,8-tetrahydropyrazolo[1,5-a][1,4]diazepin-5-yl]-5-cyano-2-[[(2R,8S)-2-fluoro-1,2,3,5,6,7-hexahydropyrrolizin-8-yl]methoxy]pyrimidin-4-yl]spiro[5,6-dihydrocyclopenta[b]thiophene-4,3′-azetidine]-3-carbonitrile], the IC50 was in the range of 10000 to 100000 nM against KRAS G12D/RAF1 (Table 4), 10 to 100 nM in assay [1] (Homo sapiens) and 10 to 100 nM in assay [2].

As for `N#Cc1c(N2C[C@H]3CC[C@@H](C2)N3)nc(OCC2(CN3CCOCC3)CC2)nc1N1CC2(CCCCc3sc(N)c(C#N)c32)C1` [Compound 70, 2-amino-1′-[5-cyano-2-[[1-(morpholinomethyl)cyclopropyl]methoxy]-6-[(1R,5S)-3,8-diazabicyclo[3.2.1]octan-3-yl]pyrimidin-4-yl]spiro[5,6,7,8-tetrahydrocyclohepta[b]thiophene-4,3′-azetidine]-3-carbonitrile], the results for the IC50 (against KRAS G12D/RAF1 (Table 4); in assay [1] (Homo sapiens); in assay [2]) were 100 to 1000 nM, 10 to 100 nM and 10 to 100 nM, respectively.

Turning to `CN(C)CC1(COc2nc(N3CC4CCC(C3)N4)c(C#N)c(N3CC4(CCc5sc(N)c(C#N)c54)C3)n2)CC1(F)F` (stereo not drawn) [Compound 74A, 2-amino-1′-[5-cyano-6-(3,8-diazabicyclo[3.2.1]octan-3-yl)-2-[[(1*)-1-[(dimethylamino)methyl]-2,2-difluoro-cyclopropyl]methoxy]pyrimidin-4-yl]spiro[5,6-dihydrocyclopenta[b]thiophene-4,3′-azetidine]-3-carbonitrile], the IC50 at KRAS G12D/RAF1 (Table 4, listed as 74.1) was below 100 nM; in assay [1], 1 to 10 nM; in assay [2] (listed as 74.1), 1 to 10 nM.

Consider `N#Cc1c(N2C[C@H]3CC[C@@H](C2)N3)nc(OCc2ccn[nH]2)nc1N1CC2(CCc3sc(N)c(C#N)c32)C1` [Compound 79, 2-amino-1′-[5-cyano-6-[(1R,5S)-3,8-diazabicyclo[3.2.1]octan-3-yl]-2-(1H-pyrazol-5-ylmethoxy)pyrimidin-4-yl]spiro[5,6-dihydrocyclopenta[b]thiophene-4,3′-azetidine]-3-carbonitrile], for which the IC50 against KRAS G12D/RAF1 (Table 4) lay within 100 to 1000 nM; in assay [1] (Homo sapiens), 10 to 100 nM; in assay [2], 10 to 100 nM.
